# Test results as given in patent US8088749B2, “Compositions and methods for treating cancer” (The Regents of the University of Michigan, priority 2007, dated 2012).
# What was measured:
# Format in all cases: cell-based, human
# ATDC [1] = assay: ATDC phosphorylation in transfected HEK293 cells
# Procedure: (B) Knockdown of ATM by specific ATM shRNA prevents IR induced phosphorylation of ATDC in Panc1 cells (n=3). (C) IR-dependent phosphorylation of ATDC occurs at serine 550. HEK 293 cells over-expressing wild type or S550A mutant ATDC were treated with IR (10 Gy) for varyin times (0-60 min). Cell lysates were harvested and co-immunoprecipitation experiments were performed using anti-ATDC and anti-phospho-serine/threonine antibodies. Results are representative of three separate experiments (D) Gemcitabine induces phosphorylation of ATDC in transfected HEK293 cells.
# ATDC has overlapping function with ATM in cell cycle checkpoint activation and that trafficking of ATDC to DNA repair foci was dependent on ATM (see, e.g., FIGS. 4,6,7,8). ATDC had been shown previously to undergo phosphorylation on serine/threonine in A431 cells (see, e.g., Laderoute K R, et al., Int J Cancer 1996; 66: 772-778). It was hypothesized therefore that ATDC is a phosphorylation target of ATM and ATR. It is known that phosphorylation targets of ATM/ATR share a common motif, with either a serine or threonine residue, usually followed by a glutamine (the SQ or TQ motif) (see, e.g., Ziv Y, et al., Nature Cell Biol 2006; 8: 870-876). […] It was verified that ATDC functioned downstream of ATM, since silencing of ATDC had no effect on the phosphorylation of ATM in response to IR (FIG. 11A). […]
# ATDC [2] = assay: ATDC nuclear foci by immunofluorescence after gemcitabine, Panc-1 cells; conditions: gemcitabine (amount/time); 50 uM
# From the text: (A). Panc1 cells exposed to IR (5 Gy, 1 hr) were fixed and costained with anti-ATDC (red) and anti-γH2AX (green) antibodies. […] Cell nuclei were counterstained with DAPI (blue). (B) Panc-1 cells exposed to IR (5 Gy, 1 hr) and co-immunostained with anti-ATDC antibody (red) and anti-p-ATM antibody (green). Co-localization of ATDC (red) with p-ATM (green) is observed in yellow in the merged image. Experiments were repeated twice with similar results. […] Results representative of 3 separate experiments.
# It has been well-documented that in response to DNA damage, numerous proteins involved in the DNA damage response traffic to discrete nuclear foci. […] Using double immunofluorescence staining, it was observed that ATDC co-localized with γH2AX (FIG. 7A), presumably at DNA damage foci. […] ATDC co-localized with ATR following gemcitabine treatment (FIG. 7B). The time course of ATDC localizing to DNA damage foci was similar to the time course of the formation of foci of phosphorylated H2AX. Whether ATDC is required for the formation of γH2AX and/or ATR foci in pancreatic cancer cells following gemcitabine was investigated.
# H2AX = H2AX phosphorylation after gemcitabine, Panc-1 cells; conditions: control Panc-1 cells, gemcitabine 50 uM
# From the text: […] Top, flowcytometric analysis of γH2AX and propidium iodide staining of DNA content. […] Bottom, comparison of the total DNA content of the population (black) versus the γH2AX-positive fraction (green). Results are representative 3 separate experiments.
# p53 and Chk1 = assay: Phosphorylation of p53 and Chk1 in response to gemcitabine, Panc-1 cells; conditions: gemcitabine 10 μM; control shRNA Panc-1 cells
# Procedure: To further investigate the role of ATDC in the DNA damage response, the effect of silencing ATDC on phosphorylation of p53 and Chk1 was investigated. In response to gemcitabine (10 μM), replication forks stall and the ATR signaling cascade is activated, which phosphorylates and activates several proteins critical to inducing the G1-S cell cycle checkpoint, including p53 and Chk1 (see, e.g., Ljungman M, Mutation Res 2005; 577: 203-216).
structure (smiles),measurement,setting,value
Nc1ccn([C@@H]2O[C@H](CO)[C@@H](O)C2(F)F)c(=O)n1 [gemcitabine],phosphorylation of ATDC,ATDC [1],induces
same,ATDC nuclear foci formation,ATDC [2],ATDC formed discrete nuclear foci
same,time of induction of H2AX phosphorylation,H2AX,≤ 10 min
same,time of return of H2AX phosphorylation to basal levels,H2AX,1 h
same,H2AX phosphorylation,H2AX; x hours,transient H2AX phosphorylation
same,phosphorylation of p53 and Chk1,p53 and Chk1,underwent phosphorylation
